Test results taken from patent publication US10947252B2, “Inhibitors of KEAP1-Nrf2 protein-protein interaction” (Janssen Pharmaceutica NV, priority 2018, dated 2021).

How the values were obtained:
[1] = molecular target: Kelch domain of human KEAP1 (321-624 aa) (Homo sapiens (Human), UniProt Q14145); experiment: KEAP1 KELCH ThermoFluor binding assay; settings: KEAP Kelch […], 1,8-ANS, pH 7.0, average of results obtained, read-out: Tf Kd;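 also: Ligand-induced melting temperature shift of E. coli-expressed KEAP1 Kelch protein, Kd estimated from concentration-response curves of ΔTm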
Sequence of Kelch domain of human KEAP1 (321-624 aa) (Q14145 321-624): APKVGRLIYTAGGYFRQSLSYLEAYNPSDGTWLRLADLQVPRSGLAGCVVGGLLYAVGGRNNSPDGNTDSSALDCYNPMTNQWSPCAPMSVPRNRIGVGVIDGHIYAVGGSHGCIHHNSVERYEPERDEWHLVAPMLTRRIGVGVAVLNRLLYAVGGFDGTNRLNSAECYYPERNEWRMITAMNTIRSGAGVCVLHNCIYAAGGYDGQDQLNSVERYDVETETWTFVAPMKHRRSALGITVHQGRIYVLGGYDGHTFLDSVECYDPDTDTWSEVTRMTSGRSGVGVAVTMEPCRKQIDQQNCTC

[2] = tested on: Glo-Response ARE-luc2P HEK293 cell line; experiment: ARE luciferase reporter cell-based assay; settings: Homo sapiens, HEK293, 24 h, average of results obtained;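 also: luciferase signal tracks Nrf2 activation of the ARE once compounds disrupt KEAP1-Nrf2 binding, read with One-Glo reagent, DMSO serving as low control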

Compound	Kd [1]	EC50 [2]
Cc1ccc([C@H](c2ccn3c(C(F)(F)F)nnc3c2C)C(C)(C)C(=O)O)cc1CN1CC2(CCOCC2)Oc2nc(N[C@@H](C)CCO)c(C)cc2S1(=O)=O (single isomer, unassigned) [Example 123, (*R)-3-(3-((7′-(((S)-4-Hydroxybutan-2-yl)amino)-8′-methyl-1′,1′-dioxido-2,3,5,6-tetrahydrospiro[pyran-4,4′-pyrido[2,3-b][1,4,5]oxathiazepin]-2′(3′H)-yl)methyl)-4-methylphenyl)-2,2-dimethyl-3-(8-methyl-3-(trifluoromethyl)-[1,2,4[triazolo[4,3-a]pyridine-7-yl)propanoic Acid]	< 1 nM	28.9 nM
Cc1ccc([C@H](c2ccn3c(C(F)(F)F)nnc3c2C)C(C)(C)C(=O)O)cc1CN1CC2(CC2)Oc2nc(N[C@@H](C)CN3CCCCC3)c(C)cc2S1(=O)=O (single isomer, unassigned) [Example 380, (*R)-2,2-Dimethyl-3-(4-methyl-3-((8′-methyl-1′,1′-dioxido-7′-(((S)-1-piperidin-1-yl)propan-2-yl)amino)spiro[cyclopropane-1,4′-pyrido [2,3-b][1,4,5]oxathiazepin]-2′(3′H)-yl)methyl)phenyl)-3-(8-methyl-3-(trifluoromethyl)-[1,2,4]triazolo[4,3-a]pyridine-7-yl)propanoic Acid]	< 1 nM	14.1 nM
Cc1cc2cc(C(CC(=O)O)c3ccc(C)c(CN4C[C@@H]5CCCN5c5ncccc5S4(=O)=O)c3)n(C)c2nn1 (mixture of isomers) [Example 437, 3-(3,7-Dimethyl-7H-pyrrolo[2,3-c]pyridazin-6-yl)-3-(3-(((S)-5,5-dioxido-7a, 8,9,10-tetrahydropyrido[2,3-f]pyrrolo[2,1-d][1,2,5]thiadiazepin-6(7H)-yl)methyl)-4-methylphenyl)propanoic Acid]	1.84 nM	4380 nM
Cc1ccc(C(c2ccn3c(C(F)(F)F)nnc3c2C)C(C)(C)C(=O)O)cc1CN1CC2(CCOCC2)Oc2nc(OCCCO)ccc2S1(=O)=O (centres unmarked) [Example 49, 3-(3-((7′-(3-Hydroxypropoxy)-1′,1′-dioxido-2,3,5,6-tetrahydrospiro[pyran-4,4′-pyrido[2,3-b][1,4,5]oxathiazepin]-2′(3′H)-yl)methyl)-4-methylphenyl-2,2′-dimethyl-3-(8-methyl-3-trifluoromethyl)-[1,2,4]triazolo[4,3-a]pyridine-7-yl)propanoic Acid]	< 1 nM	71.9 nM
Cc1ccc(C(c2ccn3c(C(F)F)nnc3c2C)C(C)(C)C(=O)O)cc1CN1CC2(CCOCC2)Oc2ncccc2S1(=O)=O (racemic) [Example 52, (R/S)-3-(3-(Difluoromethyl)-8-methyl-[1,2,4]triazolo[4,3-a]pyridin-7-yl)-3-(3-((1′,1′-dioxido-2,3,5,6-tetrahydrospiro[pyran-4,4′-pyrido[2,3-b][1,4,5]oxathiazepin]-2′(3′H)-yl)methyl)-4-methylphenyl)-2,2-dimethylpropanoic Acid]	< 1 nM	8.2 nM
Cc1ccc([C@@H](CC(=O)O)c2ccc3c(nnn3C3CC3)c2C)cc1CN1C[C@]2(C)CCCN2c2ncccc2S1(=O)=O (single isomer, unassigned) [Example 220, (*R)-3-(1-Cyclopropyl-4-methyl-1H-benzo[d][1,2,3]triazol-5-yl)-3-(4-methyl-3-(((*S)-7a-methyl-5,5-dioxido-7a,8,9,10-tetrahydropyrido[2,3-f]pyrrolo[2,1-d][1,2,5]thiadiazepin-6(7H)-yl)methyl)phenyl)propanoic Acid]	< 1 nM	61 nM
Cc1ccc([C@@H](CC(=O)O)c2ccn3c(C(F)(F)F)nnc3c2C)nc1CN1CC2(COC2)Oc2ccccc2S1(=O)=O (single isomer, unassigned) [Example 485, (*S)-3-(6-((1,1-dioxidospiro[benzo[b][1,4,5]oxathiazepine-4,3′-oxetan]-2(3H)-yl)methyl)-5-methylpyridin-2-yl)-3-(8-methyl-3-(trifluoromethyl)-[1,2,4]triazolo[4,3-a]pyridin-7-yl)propanoic Acid]	< 1 nM	156 nM
